Measurements taken from the supplement of paper PMC10307832.

Experiments:
Assay in all cases: relative viability (nuclei count vs DMSO), 5 days (fraction); higher = more cells survive
PC-3 [JPC-3] = tested on: PC-3 [JPC-3]
Summary of the method: (§1)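 The day after seeding in 1536-well plates, lung cancer cell lines were treated by pin tool with a single drug, or with a fixed anchor-drug dose together with five library-drug doses (not always all listed) in √10 steps. After 5 days, a combined fix-and-stain solution (final 0.05% Triton X-100, 1% formaldehyde, 1 ug/ml Hoechst) was added. Nuclei counted on 4× images gave relative viability as treated counts over vehicle counts, reported as the median of duplicate plates.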

LU99A = tested on: LU99A
Summary of the method: as §1

NCI-H2405 = tested on: NCI-H2405
Summary of the method: as §1

HCC-78 = tested on: HCC-78
Summary of the method: as §1

NCI-H1755 = tested on: NCI-H1755
Summary of the method: as §1

NCI-H1395 = tested on: NCI-H1395
Summary of the method: as §1

LOU-NH91 = tested on: LOU-NH91
Summary of the method: as §1

NCI-H460 = tested on: NCI-H460
Summary of the method: as §1

LC-2-ad = tested on: LC-2-ad
Summary of the method: as §1

UMC-11 = tested on: UMC-11
Summary of the method: as §1

NCI-H3122 = tested on: NCI-H3122
Summary of the method: as §1

ABC-1 = tested on: ABC-1
Summary of the method: as §1

NCI-H1793 = tested on: NCI-H1793
Summary of the method: as §1

RERF-LC-KJ = tested on: RERF-LC-KJ
Summary of the method: as §1

ChaGo-K-1 = tested on: ChaGo-K-1
Summary of the method: as §1

NCI-H1944 = tested on: NCI-H1944
Summary of the method: as §1

NCI-H1651 = tested on: NCI-H1651
Summary of the method: as §1

NCI-H2170 = tested on: NCI-H2170
Summary of the method: as §1

HCC-366 = tested on: HCC-366
Summary of the method: as §1

NCI-H2087 = tested on: NCI-H2087
Summary of the method: as §1

In the case of CCN(CC)CCCCNc1ncc2cc(-c3cc(OC)cc(OC)c3)c(NC(=O)NC(C)(C)C)nc2n1 + Nc1ncn([C@H]2C[C@H](O)[C@@H](CO)O2)c(=O)n1 [Decitabine] (partner 2 µM), the relative viability (PC-3 [JPC-3]; first compound 0.03162 µM) is reported as 0.708, the relative viability (PC-3 [JPC-3]; first compound 0.1 µM) is reported as 0.928 and the relative viability (PC-3 [JPC-3]; first compound 0.3162 µM) is reported as 0.851. For the same compound, the relative viability (PC-3 [JPC-3]; first compound 1 µM) was 0.804, the relative viability (LU99A; first compound 0.01 µM) was 1.01 and the relative viability (LU99A; first compound 0.03162 µM) was 0.82. For the same compound, the relative viability (LU99A; first compound 0.1 µM) was 0.861, the relative viability (LU99A; first compound 0.3162 µM) was 0.944 and the relative viability (LU99A; first compound 1 µM) was 0.79. The relative viability (NCI-H2405; first compound 0.01 µM) was 0.778, the relative viability (NCI-H2405; first compound 0.03162 µM) was 0.728 and the relative viability (NCI-H2405; first compound 0.1 µM) was 0.767. The relative viability (NCI-H2405; first compound 0.3162 µM) was 0.765, the relative viability (NCI-H2405; first compound 1 µM) was 0.702 and the relative viability (HCC-78; first compound 0.01 µM) was 0.697. The relative viability (HCC-78; first compound 0.03162 µM) was 0.769, the relative viability (HCC-78; first compound 0.1 µM) was 0.683 and the relative viability (HCC-78; first compound 0.3162 µM) was 0.666. The relative viability (HCC-78; first compound 1 µM) was 0.636, the relative viability (NCI-H1755; first compound 0.01 µM) was 0.72 and the relative viability (NCI-H1755; first compound 0.03162 µM) was 0.715. It also gave a relative viability (NCI-H1755; first compound 0.1 µM) of 0.712, a relative viability (NCI-H1755; first compound 0.3162 µM) of 0.756 and a relative viability (NCI-H1755; first compound 1 µM) of 0.685. For the same compound, the relative viability (NCI-H1395; first compound 0.01 µM) was 0.8, the relative viability (NCI-H1395; first compound 0.03162 µM) was 0.685 and the relative viability (NCI-H1395; first compound 0.1 µM) was 0.743. The relative viability (NCI-H1395; first compound 0.3162 µM) was 0.735, the relative viability (NCI-H1395; first compound 1 µM) was 0.598 and the relative viability (LOU-NH91; first compound 0.01 µM) was 0.799. It also gave a relative viability (LOU-NH91; first compound 0.03162 µM) of 0.783, a relative viability (LOU-NH91; first compound 0.1 µM) of 0.875 and a relative viability (LOU-NH91; first compound 0.3162 µM) of 0.801. For the same compound, the relative viability (LOU-NH91; first compound 1 µM) was 0.804, the relative viability (NCI-H460; first compound 0.01 µM) was 0.505 and the relative viability (NCI-H460; first compound 0.03162 µM) was 0.591. It also gave a relative viability (NCI-H460; first compound 0.1 µM) of 0.645, a relative viability (NCI-H460; first compound 0.3162 µM) of 0.584 and a relative viability (NCI-H460; first compound 1 µM) of 0.412. The relative viability (LC-2-ad; first compound 0.01 µM) was 0.827, the relative viability (LC-2-ad; first compound 0.03162 µM) was 0.81 and the relative viability (LC-2-ad; first compound 0.1 µM) was 0.823. The relative viability (LC-2-ad; first compound 0.3162 µM) was 0.852, the relative viability (LC-2-ad; first compound 1 µM) was 0.775 and the relative viability (UMC-11; first compound 0.01 µM) was 0.724. For the same compound, the relative viability (UMC-11; first compound 0.03162 µM) was 0.615, the relative viability (UMC-11; first compound 0.1 µM) was 0.661 and the relative viability (UMC-11; first compound 0.3162 µM) was 0.592. The relative viability (UMC-11; first compound 1 µM) was 0.592, the relative viability (NCI-H3122; first compound 0.01 µM) was 0.493 and the relative viability (NCI-H3122; first compound 0.03162 µM) was 0.472. For the same compound, the relative viability (NCI-H3122; first compound 0.1 µM) was 0.418, the relative viability (NCI-H3122; first compound 0.3162 µM) was 0.448 and the relative viability (NCI-H3122; first compound 1 µM) was 0.42. It also gave a relative viability (ABC-1; first compound 0.03162 µM) of 1.17, a relative viability (ABC-1; first compound 0.1 µM) of 1.32 and a relative viability (ABC-1; first compound 0.3162 µM) of 1.06. It also gave a relative viability (ABC-1; first compound 1 µM) of 1.05, a relative viability (NCI-H1793; first compound 0.01 µM) of 0.496 and a relative viability (NCI-H1793; first compound 0.03162 µM) of 0.464. It also gave a relative viability (NCI-H1793; first compound 0.1 µM) of 0.56, a relative viability (NCI-H1793; first compound 0.3162 µM) of 0.472 and a relative viability (NCI-H1793; first compound 1 µM) of 0.352. The relative viability (RERF-LC-KJ; first compound 0.01 µM) was 0.697, the relative viability (RERF-LC-KJ; first compound 0.03162 µM) was 0.687 and the relative viability (RERF-LC-KJ; first compound 0.1 µM) was 0.74. It also gave a relative viability (RERF-LC-KJ; first compound 0.3162 µM) of 0.717, a relative viability (RERF-LC-KJ; first compound 1 µM) of 0.603 and a relative viability (ChaGo-K-1; first compound 0.01 µM) of 0.563. The relative viability (ChaGo-K-1; first compound 0.03162 µM) was 0.516, the relative viability (ChaGo-K-1; first compound 0.1 µM) was 0.54 and the relative viability (ChaGo-K-1; first compound 0.3162 µM) was 0.539. For the same compound, the relative viability (ChaGo-K-1; first compound 1 µM) was 0.51, the relative viability (NCI-H1944; first compound 0.01 µM) was 0.489 and the relative viability (NCI-H1944; first compound 0.03162 µM) was 0.435. It also gave a relative viability (NCI-H1944; first compound 0.1 µM) of 0.427, a relative viability (NCI-H1944; first compound 0.3162 µM) of 0.489 and a relative viability (NCI-H1944; first compound 1 µM) of 0.477. For the same compound, the relative viability (NCI-H1651; first compound 0.01 µM) was 0.625, the relative viability (NCI-H1651; first compound 0.03162 µM) was 0.68 and the relative viability (NCI-H1651; first compound 0.1 µM) was 0.63. For the same compound, the relative viability (NCI-H1651; first compound 0.3162 µM) was 0.75, the relative viability (NCI-H1651; first compound 1 µM) was 0.589 and the relative viability (NCI-H2170; first compound 0.01 µM) was 0.474. It also gave a relative viability (NCI-H2170; first compound 0.03162 µM) of 0.427, a relative viability (NCI-H2170; first compound 0.1 µM) of 0.436 and a relative viability (NCI-H2170; first compound 0.3162 µM) of 0.47. It also gave a relative viability (NCI-H2170; first compound 1 µM) of 0.497, a relative viability (HCC-366; first compound 0.01 µM) of 0.316 and a relative viability (HCC-366; first compound 0.03162 µM) of 0.378. For the same compound, the relative viability (HCC-366; first compound 0.1 µM) was 0.368, the relative viability (HCC-366; first compound 0.3162 µM) was 0.41 and the relative viability (HCC-366; first compound 1 µM) was 0.319. For the same compound, the relative viability (NCI-H2087; first compound 0.01 µM) was 0.314, the relative viability (NCI-H2087; first compound 0.03162 µM) was 0.29 and the relative viability (NCI-H2087; first compound 0.1 µM) was 0.302. For the same compound, the relative viability (NCI-H2087; first compound 0.3162 µM) was 0.284 and the relative viability (NCI-H2087; first compound 1 µM) was 0.317.
